Tested on: asthmatic patients
Assay: sGaw after inhaled dry powder in asthmatic patients, single blind study (Examples 5, 6)
Assay type: in vivo, human
Settings: dry powder 1 mg inhaled
Experimental: (§1) To test this theory, asthmatic patients are enrolled in a dose escalating single blind study. On arrival to the clinic, subjects are allowed to rest for 20 minutes before baseline measurements of FEV1 (six recordings) and sGaw (five recordings) are made. Subjects receive a dry powder dispenser loaded with a dose of 2 mg theophylline or a dry powder carrier. […] After each inhalation, measurements of sGaw are made at 1, 3, 5, 10, 15, 20, 25, and 30 minutes.
On completion of the last recording, subjects inhale a 200 μg dose of salbutamol from a metered inhaler and a further measurement of sGaw is made after 15 minutes. Subjects are also monitored for coughing and are questioned about the taste of the drug.
as §1, with “Asthmatic patients” for “To test this theory, asthmatic patients”, “of 1” for “of 2”, “mg IBMX formulated as a dry powder” for “mg theophylline”
On completion of the last recording, subjects inhale a 200 μg dose of salbutamol from a metered inhaler and a further measurement of sGaw mad after 15 minutes. Subjects are also be monitored for coughing and are questioned about the taste of the drug.

CC(C)Cn1c(=O)n(C)c(=O)c2[nH]cnc21 [IBMX, 3-isobutyl-1-methylxanthine]
increase in sGaw versus 200 μg salbutamol: comparable with that produced by salbutamol
time until sGaw baseline is reached: one and a half hours
sGaw above baseline measurement (after 30 minutes): 20%

— patent publication US12329753B2, “Phosphodiesterase inhibitor treatment” (Cyrano Therapeutics, Inc., priority 2008, dated 2025)
